Experiment [1] addresses human orexin 2 receptor (Homo sapiens (Human), UniProt O43614). Kind of experiment: Human orexin 2 receptor radioligand binding ([3H]-EMPA). The following applies: averages of 2-20 runs, read-out: hOX2 Ki. The procedure, abridged:
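Competition binding using homogenized HEK293 cells stably expressing human orexin 2 receptor, [3H]-EMPA at 2 nM final and ≤0.1% DMSO; nonspecific binding set with 10 μM almorexant. Filter-bound radioactivity counted by scintillation; one-site competition IC50 converted to Ki using pre-determined Kd, compounds run in triplicate.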

Experiment [2] concerns the target human orexin 1 receptor (Homo sapiens, UniProt O43613). Kind of experiment: Human orexin 1 receptor radioligand binding. The following applies: human orexin 1 receptor radioligand binding; averages of 2-20 runs; read-out: hOX1 Ki.
For experiment [3], the target named is rat orexin 1 receptor (Rattus norvegicus, UniProt P56718). Kind of experiment: Rat orexin 1 receptor radioligand binding. The following applies: rat orexin 1 receptor radioligand binding; averages of 2-20 runs; read-out: rOX1 Ki. The method, boiled down: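 Cell-suspension competition binding used 4 nM final tritiated thiazolyl-pyrrolidinyl-methanone radioligand in PBS, ≤0.1% DMSO, with 10 µM almorexant defining nonspecific binding. Filter-bound radioactivity was counted in triplicate. IC50 came from one-site competition fits and was converted to Ki using the predetermined Kd.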

Broadly, the Ki is a measure of affinity in units of concentration, obtained from inhibition or displacement.

human orexin 2 receptor, sequence (O43614 whole entry): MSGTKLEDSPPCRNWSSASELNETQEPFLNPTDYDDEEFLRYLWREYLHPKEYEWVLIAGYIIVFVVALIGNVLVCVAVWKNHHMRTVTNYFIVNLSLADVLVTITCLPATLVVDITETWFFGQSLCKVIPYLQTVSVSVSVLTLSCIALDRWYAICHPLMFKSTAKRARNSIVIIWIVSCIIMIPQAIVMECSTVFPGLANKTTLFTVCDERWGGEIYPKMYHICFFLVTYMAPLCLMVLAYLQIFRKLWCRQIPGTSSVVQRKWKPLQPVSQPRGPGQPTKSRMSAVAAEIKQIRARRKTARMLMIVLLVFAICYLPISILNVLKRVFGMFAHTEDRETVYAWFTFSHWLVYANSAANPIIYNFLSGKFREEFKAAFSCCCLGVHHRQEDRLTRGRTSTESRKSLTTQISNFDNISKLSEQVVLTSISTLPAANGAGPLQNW

`C[C@H]1[C@H](Oc2ccc(Cl)cn2)CCCN1C(=O)c1ncccc1-c1ncccn1` [Example 218, ((2S,3R)-3-((5-chloropyridin-2-yl)oxy)-2-methylpiperidin-1-yl)(3-(pyrimidin-2-yl)pyridin-2-yl)methanone]: the Ki stood at 495 nM in experiment [1], 29 nM in experiment [2] and 26 nM in experiment [3].

`CCOc1ccc(C)nc1C(=O)N1CCC[C@@H](Oc2ccc(C(F)(F)F)cn2)[C@@H]1C` [Example 219, (3-ethoxy-6-methylpyridin-2-yl)((2S,3R)-2-methyl-3-((5-(trifluoromethyl)pyridin-2-yl)oxy)piperidin-1-yl)methanone]: the Ki in experiment [1] is 1300 nM; in experiment [2], 55 nM; in experiment [3], 51 nM.

For the compound `Cc1cccc(C(=O)N2CCC[C@@H](Oc3ncc(C(F)(F)F)cc3F)[C@@H]2C)c1-c1ncccn1` [Example 220, ((2S,3R)-3-((3-fluoro-5-(trifluoromethyl)pyridin-2-yl)oxy)-2-methylpiperidin-1-yl)(3-methyl-2-(pyrimidin-2-yl)phenyl)methanone], the Ki in experiment [1] came out at 393 nM; in experiment [2], 25 nM; in experiment [3] it was 23 nM.

As for `C[C@H]1[C@H](Oc2ncc(C(F)(F)F)cc2F)CCCN1C(=O)c1cc(F)ccc1-c1ncccn1` [Example 221, (5-fluoro-2-(pyrimidin-2-yl)phenyl)((2S,3R)-3-((3-fluoro-5-(trifluoromethyl)pyridin-2-yl)oxy)-2-methylpiperidin-1-yl)methanone], the Ki in experiment [1] is 533 nM; in experiment [2], 44 nM; in experiment [3], 32 nM.

In the case of `C[C@H]1[C@H](Oc2ncc(C(F)(F)F)cc2F)CCCN1C(=O)c1ccc(F)cc1-c1ncccn1` [Example 222, (4-fluoro-2-(pyrimidin-2-yl)phenyl)((2S,3R)-3-((3-fluoro-5-(trifluoromethyl)pyridin-2-yl)oxy)-2-methylpiperidin-1-yl)methanone], the results for the Ki in experiment [1], in experiment [2] and in experiment [3] were 1300 nM, 91 nM and 55 nM, respectively.

For `Cc1ccc(-c2ncccn2)c(C(=O)N2CCC[C@@H](Oc3ncc(C(F)(F)F)cc3F)[C@@H]2C)n1` [Example 223, ((2S,3R)-3-((3-fluoro-5-(trifluoromethyl)pyridin-2-yl)oxy)-2-methylpiperidin-1-yl)(6-methyl-3-(pyrimidin-2-yl)pyridin-2-yl)methanone], the figures for the Ki in experiment [1], in experiment [2] and in experiment [3] were 370 nM, 45 nM and 35 nM, respectively.

Take `C[C@H]1[C@H](Oc2ncc(C(F)(F)F)cc2F)CCCN1C(=O)c1ccccc1-n1nccn1` [Example 224, (2-(2H-1,2,3-triazol-2-yl)phenyl)((2S,3R)-3-((3-fluoro-5-(trifluoromethyl)pyridin-2-yl)oxy)-2-methylpiperidin-1-yl)methanone]: the Ki in experiment [1] was 576 nM; in experiment [2], 47 nM; in experiment [3] it was 33 nM.

The record behind these values is patent publication US9611251B2, “Substituted piperidine compounds and their use as orexin receptor modulators” (Janssen Pharmaceutica NV, priority 2013, dated 2017).
